{"source": "patent US20240317736A1", "about": "“DEUTERATED DERIVATIVE AS ATX INHIBITOR, AND APPLICATION THEREOF” (Xizang Haisco Pharmaceutical Co., Ltd., priority 2020, published 2024)", "key": {"[1]": {"biological_target": "T1, autocrine motility factor (Homo sapiens, UniProt Q13822)", "T1 construct": "Whole blood was anticoagulated with heparin and centrifuged, and then plasma was collected; from tissue; host or cells: pooled human plasma (heparin-anticoagulated whole blood)", "assay": "Inhibition of LPA formation in mixed ex vivo human plasma", "assay_type": "biochemical", "details": "37° C., 2 h", "procedure": "Autocrine motility factor is a phosphodiesterase in plasma that converts lysophosphatidylcholine (LPC) to lysophosphatidic acid (LPA). Therefore, the formation of LPA can be used to evaluate the potency of an autocrine motility factor inhibitor. The potency of the compound in mixed ex vivo human plasma was evaluated.\nWhole blood was anticoagulated with heparin and centrifuged, and then plasma was collected. 5 μL of gradient-diluted test compounds or DMSO was added to 95 μL of plasma and incubated at 37° C. for 2 h. After that, a stop buffer (40 mM disodium hydrogen phosphate buffer, containing 30 mM of citric acid, pH=4) was added. LPA in plasma was detected by LC-MSMS before and after incubation. In order to determine the concentration of LPA 18:2 or LPA 20:4 in the plasma in study, calibration standard substances at 20000 ng/mL, 10000 ng/mL, 5000 ng/ml, 2000 ng/ml, 1000 ng/mL, 500 ng/mL, 200 ng/ml, 100 ng/mL, 50 ng/ml, 20 ng/mL and 10 ng/ml for LPA 18:2 or LPA 20:4 were prepared by performing serial dilution in butanol. 3 μL of calibration standard solution was added to 27.0 μL of blank plasmas in each 1.5 mL microcentrifuge tube to produce 1× calibration standard substances. 30.0 μL of standard substances or plasma in study was added to each 1.5 mL microcentrifuge tube. 200 μL of butanol (containing 25.0 ng/mL LPA 17:0 for internal control) was added to each 1.5 mL microcentrifuge tube containing the plasma in study or calibration standard substance. Vortex oscillation was performed for 1 min, and centrifugation was performed at 10000 rpm for 10 min. 180 μL of the supernatant was transferred to a 96-well plate, and LC/MS/MS was used together with the standard substance to quantify the concentration of LPA 18:2 in the plasma. In short, 8 μL of the solution was injected, and LC-MS/MS analysis using an ACQUITY UPLC BEH C18 column (2.1×50 mm, 1.7 μm) was performed, wherein mobile phase A [20 mM NH4OAC aqueous solution (0.1% FA)] and mobile phase B [5 mM NH4OAC aqueous solution/0.2% FA in ACN=5:95] were used. The parameters of a mass spectrometer for LPA 18:2 were optimized by means of deprotonation of molecular ions. For LPA 18:2 at m/z 433.2([M−H]−), LPA 20:4 at 457.2, and LPA 18:2 and LPA 20:4 both at m/z 152.8, abundant product ions were obtained. Quantitative data were obtained in a multiple reaction monitoring (MRM) negative electrospray ionization mode.\nThe inhibition rates of compounds at different concentrations on LPA formation were determined by comparing the changes of LPA levels in incubated and unincubated plasma. The IC50 of the compounds was calculated as a calculation inhibition rate, and the relative concentration at each well=the concentration at each well−the average concentration at baseline.\nInhibition rate %=(average relative concentration at control well−average relative concentration at test well)/average relative concentration at control well×100%. The curve was plotted with the inhibition rates as a y axis and the compound concentrations as an x axis, and fitting was performed by GraphPad Prism7.0 using log (inhibitor) and normalized response (variable slope)."}, "[2]": {"assay": "Pharmacokinetic test in mice", "assay_type": "in vivo", "details": "male, C57, mouse, plasma; for Cmax: read-out: C0 or Cmax", "procedure": "Test objective: the pharmacokinetic characteristics and bioavailability of test compounds in mice were evaluated.\nTest animals: thirty-six C57 male mice, about 25 g, 6-8 weeks old, purchased from Chengdu Ddossy Experimental Animals Co., Ltd., with the production license number of SCXK (CHUAN) 2020-030.\nVehicle for intravenous administration: 5% DMA+5% Solutol+90% Saline; vehicle for intragastric administration: 0.5% MC\n(§1) Before and after the administration, 0.06 mL of blood was taken from the orbits under isoflurane anaesthesia and placed in an EDTAK2 centrifuge tube. The blood was centrifuged at 5000 rpm at 4° C. for 10 min, and plasma was collected. Time points for blood collection: 0 min, 5 min, 15 min, 30 min, 1 h, 2 h, 4 h, 6 h, 8 h, 10 h and 24 h. Before analysis and detection, all plasma samples were stored at −80° C."}, "[3]": {"assay": "Pharmacokinetic test in dogs", "assay_type": "in vivo, male beagles", "details": "male, beagle, dog, plasma; for Cmax: read-out: C0 or Cmax", "procedure": "Test objective: the pharmacokinetic characteristics and bioavailability of test compounds in dogs were evaluated.\nTest animals: twelve male beagles, 8-10 kg, 0.5-1.5 years old, purchased from Beijing Marshall Biotechnology Co. Ltd., with the production license number of SCXK (JING) 2016-001.\nVehicle for intravenous administration: 5% DMSO+5% Solutol+90% Saline; • vehicle for intragastric administration: 1% DMSO+1% Solutol+98% (0.5% MC);\nas §1, with “the administration, 1.0 mL of” for “the administration, 0.06 mL of”, “from the veins of the forelimbs and placed” for “from the orbits under isoflurane anaesthesia and placed”, “h, 10 h, 12 h and” for “h, 10 h and”"}, "[4]": {"assay": "Pharmacokinetic test in monkeys", "assay_type": "in vivo, Cynomolgus macaques", "details": "male, cynomolgus monkey, plasma; for Cmax: read-out: C0 or Cmax", "procedure": "Test objective: the pharmacokinetic characteristics and bioavailability of test compounds in monkeys were evaluated.\nTest animals: twelve male Cynomolgus macaques, 2.4-5.9 kg, 3-5.5 years old, purchased from Suzhou Xishan Zhongke Laboratory Animal Co., Ltd., with the production license number of SCXK (SU) 2018-0001.\nVehicle for intravenous administration: 5% DMSO+5% Solutol+90% Saline; • vehicle for intragastric administration: 1% DMSO+1% Solutol+98% (0.5% CMC-Na)\nas §1, with “the administration, 1.0 mL of” for “the administration, 0.06 mL of”, “from the veins of the forelimbs and placed” for “from the orbits under isoflurane anaesthesia and placed”, “h, 10 h, 12 h and” for “h, 10 h and”"}, "hERG potassium channel": {"biological_target": "hERG potassium channel (Homo sapiens, UniProt Q12809)", "sequence (Q12809 whole entry)": "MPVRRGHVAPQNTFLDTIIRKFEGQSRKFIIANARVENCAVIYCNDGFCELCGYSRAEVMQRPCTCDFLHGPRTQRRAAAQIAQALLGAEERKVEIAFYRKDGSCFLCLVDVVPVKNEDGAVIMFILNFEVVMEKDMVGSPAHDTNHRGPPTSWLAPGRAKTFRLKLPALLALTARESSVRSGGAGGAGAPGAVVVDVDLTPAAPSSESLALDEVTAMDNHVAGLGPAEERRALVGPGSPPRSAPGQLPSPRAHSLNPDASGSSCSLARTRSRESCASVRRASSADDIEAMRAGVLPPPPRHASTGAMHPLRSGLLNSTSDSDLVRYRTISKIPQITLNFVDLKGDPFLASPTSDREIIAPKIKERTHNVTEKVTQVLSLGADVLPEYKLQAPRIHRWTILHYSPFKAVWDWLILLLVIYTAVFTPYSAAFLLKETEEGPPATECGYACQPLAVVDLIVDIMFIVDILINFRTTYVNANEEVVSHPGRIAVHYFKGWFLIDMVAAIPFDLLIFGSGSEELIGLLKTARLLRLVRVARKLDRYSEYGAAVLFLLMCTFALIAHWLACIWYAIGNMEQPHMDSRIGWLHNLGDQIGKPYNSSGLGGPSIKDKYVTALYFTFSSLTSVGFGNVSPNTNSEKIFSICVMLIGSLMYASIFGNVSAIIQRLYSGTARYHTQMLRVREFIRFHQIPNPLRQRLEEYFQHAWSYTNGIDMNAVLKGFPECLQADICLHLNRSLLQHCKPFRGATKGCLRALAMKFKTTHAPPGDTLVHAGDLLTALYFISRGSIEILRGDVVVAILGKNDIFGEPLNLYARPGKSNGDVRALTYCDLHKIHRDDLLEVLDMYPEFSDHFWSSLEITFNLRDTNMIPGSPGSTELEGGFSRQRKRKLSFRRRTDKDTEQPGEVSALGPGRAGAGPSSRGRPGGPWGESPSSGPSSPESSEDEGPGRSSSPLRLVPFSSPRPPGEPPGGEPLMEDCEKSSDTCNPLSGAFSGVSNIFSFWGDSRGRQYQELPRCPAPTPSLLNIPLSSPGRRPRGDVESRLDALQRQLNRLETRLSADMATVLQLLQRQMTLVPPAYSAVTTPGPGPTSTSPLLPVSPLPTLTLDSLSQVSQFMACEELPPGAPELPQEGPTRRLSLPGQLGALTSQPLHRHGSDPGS", "assay": "cell-based", "protocol": "The effect of the example compounds on the current of an hERG potassium channel (human Ether-à-go-go Related Gene potassium channel) was tested by 10 means of an electrophysiological manual patch-clamp method.\nHEK293 cell lines stably expressing hERG ion channels were purchased from Invitrogen.\nA test compound was firstly dissolved in DMSO and prepared into a stock solution with a final concentration of 30 mM. […] Five working solutions with different gradient concentrations were used to determine the potential inhibitory effect of the compound on the hERG potassium channel and used to fit a dose-response curve and calculate IC50.\nA small slide carrying HEK293 cells in a culture dish was placed in a perfusion tank on a micromanipulator. • 2. […] The peak value of the tail current was the magnitude of hERG currents. • 9 The hERG currents used to detect the test compounds were continuously recorded for 120 seconds prior to administration, thereby evaluating the stability of test cells generating hERG currents. […] The inhibitory effects of the test compounds on hERG currents were tested as follows: firstly, the hERG current measured in the extracellular fluid containing 0.1% DMSO was used as a test baseline. […] Upon completion of each perfusion, waiting about 5 min allowed the compounds to be fully acted on the cells, and the hERG currents were recorded synchronously. […]"}}, "note": "Read-outs that look alike come from different tables or passages of the source."}
{"smiles": "[2H]C([2H])([2H])N(c1nc(-c2ccc(F)cc2)c(C#N)s1)c1c(CC)nn2cc(F)c(N3CCN(CC(=O)N4CC(O)C4)CC3)cc12", "note": "[Compound 3, 2-((2-ethyl-6-fluoro-5-(4-(2-(3-hydroxyazetidin-1-yl)-2-oxoethyl)piperazin-1-yl)pyrazolo[1,5-a]pyridin-3-yl)(methyl-d3)amino)-4-(4-fluorophenyl)thiazole-5-carbonitrile]", "values": [{"measurement": "IC50", "setting": "[1]; LPA 18:2 by LC-MS/MS, read-out: IC50 for inhibiting LPA formation (18:2)", "result": 42.7, "unit": "nM"}, {"measurement": "IC50", "setting": "[1]; LPA 20:4 by LC-MS/MS, read-out: IC50 for inhibiting LPA formation (20:4)", "result": 44.5, "unit": "nM"}, {"measurement": "AUC", "setting": "[2]; IV 1 mg/kg", "result": 1490, "unit": "ng·h/mL"}, {"measurement": "half-life", "setting": "[2]; IV 1 mg/kg", "result": 1.56, "unit": "h"}, {"measurement": "Cmax", "setting": "[2]; IV 1 mg/kg", "result": 1110, "unit": "ng/mL"}, {"measurement": "AUC", "setting": "[2]; PO 10 mg/kg", "result": 9600, "unit": "ng·h/mL"}, {"measurement": "Tmax", "setting": "[2]; PO 10 mg/kg", "result": 0.25, "unit": "h"}, {"measurement": "half-life", "setting": "[2]; PO 10 mg/kg", "result": 2.14, "unit": "h"}, {"measurement": "bioavailability", "setting": "[2]; PO 10 mg/kg vs IV 1 mg/kg", "result": 64.5, "unit": "%"}, {"measurement": "Cmax", "setting": "[2]; PO 10 mg/kg", "result": 1300, "unit": "ng/mL"}, {"measurement": "AUC", "setting": "[3]; IV 1 mg/kg", "result": "6840 ± 883", "unit": "ng·h/mL"}, {"measurement": "half-life", "setting": "[3]; IV 1 mg/kg", "result": "6.96 ± 1.5", "unit": "h"}, {"measurement": "Cmax", "setting": "[3]; IV 1 mg/kg", "result": "1490 ± 451", "unit": "ng/mL"}, {"measurement": "AUC", "setting": "[3]; PO 2 mg/kg", "result": "15900 ± 2980", "unit": "ng·h/mL"}, {"measurement": "Tmax", "setting": "[3]; PO 2 mg/kg", "result": "1.67 ± 0.58", "unit": "h"}, {"measurement": "half-life", "setting": "[3]; PO 2 mg/kg", "result": "7.19 ± 0.75", "unit": "h"}, {"measurement": "bioavailability", "setting": "[3]; PO 2 mg/kg vs IV 1 mg/kg", "result": "116 ± 22", "unit": "%"}, {"measurement": "Cmax", "setting": "[3]; PO 2 mg/kg", "result": "1620 ± 176", "unit": "ng/mL"}, {"measurement": "AUC", "setting": "[4]; IV 1 mg/kg", "result": "2010 ± 621", "unit": "ng·h/mL"}, {"measurement": "half-life", "setting": "[4]; IV 1 mg/kg", "result": "2.96 ± 1", "unit": "h"}, {"measurement": "Cmax", "setting": "[4]; IV 1 mg/kg", "result": "1040 ± 116", "unit": "ng/mL"}, {"measurement": "AUC", "setting": "[4]; PO 5 mg/kg", "result": "3120 ± 492", "unit": "ng·h/mL"}, {"measurement": "Tmax", "setting": "[4]; PO 5 mg/kg", "result": "1.33 ± 0.58", "unit": "h"}, {"measurement": "half-life", "setting": "[4]; PO 5 mg/kg", "result": "4.02 ± 0.59", "unit": "h"}, {"measurement": "Cmax", "setting": "[4]; PO 5 mg/kg", "result": "657 ± 170", "unit": "ng/mL"}, {"measurement": "IC50", "setting": "hERG potassium channel", "result": 23100, "unit": "nM"}]}
